Reference: patent publication US12421220B2, “Bicyclic-substituted glutarimide cereblon binders” (C4 THERAPEUTICS, INC., priority 2022, dated 2025)

What follows are compounds tested against CRBN-DDB1 (CRBN_DDB1.3) (Homo sapiens, UniProt Q96SW2) (assay: Fluorescence polarization (FP) binding assay, CRBN_DDB1.3 construct). Conditions: 0.05% PA, 0.1% BSA; benzomorpholine binders; read-out: FP CRBN_DDB1.3 0.05% PA, 0.1% BSA Ka nM.
Procedure: Example 2: Fluorescence Polarization (FP) Assay for Screening Compound Ligand Binders of CRBN-DDB1
Measuring compound ligand binding to CRBN-DDB 1 was carried out using an established sensitive and quantitative in vitro fluorescence polarization (FP) based binding assay. (See, I. J. Enyedy et al, J. Med. Chem., 44: […] [2001]). Compounds were dispensed from serially diluted DMSO stock into black 384-well compatible fluorescence polarization plates using an Echo acoustic dispenser. Compound binding to CRBN-DDB 1 was measured by displacement of an established CRBN binding ligand conjugated to an Alexa Fluor® dye (probe). A […] mixture containing 10nM CRBN-DDB1 and 5 nM probe in 50 mM Hepes, pH 7.4, 200 mM NaCl, 1% DMSO, 0.1% BSA and 0.05% o pluronic acid-127 acid was added to wells containing compound and incubated at room temperature for 60 min. Matching control wells excluding CRBN-DDB 1 were used to correct for background fluorescence. Plates were read on an Envision plate reader with appropriate FP filter sets. The corrected S (perpendicular) and P (parallel) values were used to calculate fluorescence polarization (FP) with the following equation: FP=1000*(S−G*P)/(S+G*P).
The fractional amount of bound probe (FB) to CRBN-DDB 1 as a function of compound concentration was fitted according to Wang; FEBS Letters 360, (1995), 111-114 to obtain fits for parameter offsets and binding constant (KA) of competitor compound.

Sequence of CRBN-DDB1 (CRBN_DDB1.3) (Q96SW2 318-426 limits assumed): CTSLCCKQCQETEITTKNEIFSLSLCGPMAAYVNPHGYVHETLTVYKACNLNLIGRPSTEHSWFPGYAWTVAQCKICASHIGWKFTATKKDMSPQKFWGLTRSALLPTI

Kd [nM] | SMILES
≤ 1000 | CN(C(=O)OC(C)(C)C)C1CCN(c2cccc3c2OCCN3[C@@H]2CCC(=O)NC2=O)CC1 (single isomer, unassigned) [Compound 16-7]
≤ 100000 | O=C1CCC(N2CCOc3c([C@H]4CCCNC4)cccc32)C(=O)N1 (stereo partly drawn) [Compound 13-8, 3-[8-[(3R)-3-piperidyl]-2,3-dihydro-1,4-benzoxazin-4-yl]piperidine-2,6-dione]
≤ 100000 | O=C1CCN(c2cccc3c2OCCN3C2CCC(=O)NC2=O)CC1 (centres unmarked) [Compound 6-12, 3-(8-(4-oxopiperidin-1-yl)-2,3-dihydro-4H-benzo[b][1,4]oxazin-4-yl)piperidine-2,6-dione]
≤ 100000 | O=C(O)CN1CCC(c2cccc3c2OCC(=O)N3C2CCC(=O)NC2=O)CC1 (centres unmarked) [Compound 29-5, 2-(4-(4-(2,6-dioxopiperidin-3-yl)-3-oxo-3,4-dihydro-2H-benzo[b][1,4]oxazin-8-yl)piperidin-1-yl)acetic acid]
≤ 100000 | O=C1CCC(N2CCOc3c([C@@H]4CCCNC4)cccc32)C(=O)N1 (stereo partly drawn) [Compound 13-11, 3-[8-[(3S)-3-piperidyl]-2,3-dihydro-1,4-benzoxazin-4-yl]piperidine-2,6-dione]
≤ 100000 | CN(C(=O)OC(C)(C)C)C1CCN(c2cccc3c2OCCN3[C@H]2CCC(=O)NC2=O)CC1 (single isomer, unassigned) [Compound 16-6]

Same assay, conditions: 0.05% PA, 0.1% BSA; indoline binders; read-out: FP CRBN_DDB1.3 0.05% PA, 0.1% BSA ka nM

Kd [nM] | SMILES
< 1000 | CC(C)(C)OC(=O)N1CCC(c2cc3c(cc2F)N([C@H]2CCC(=O)NC2=O)CC3)CC1 (single isomer, unassigned) [Compound 52-6]
< 100000 | CC(C)(C)OC(=O)CC1(O)CCN(c2cccc3c2CCN3[C@H]2CCC(=O)NC2=O)CC1 (single isomer, unassigned) [Compound 38-6]
< 100000 | CC(C)(C)OC(=O)N1CC[C@H]2CN(c3cccc4c3CCN4[C@H]3CCC(=O)NC3=O)CC[C@H]21 (single isomer, unassigned) [Compound 56-8a]
< 100000 | CC(C)(C)OC(=O)C1CCN(Cc2cccc3c2CCN3C2CCC(=O)NC2=O)CC1 (racemic) [Compound 54-5, tert-butyl 1-[[1-(2,6-dioxo-3-piperidyl)indolin-4-yl]methyl]piperidine-4-carboxylate]
< 1000 | CC(C)(C)OC(=O)N1CCC(c2ccc3c(c2)CCN3[C@@H]2CCC(=O)NC2=O)CC1 (single isomer, unassigned) [Compound 40-5]
< 100000 | CN(C(=O)OC(C)(C)C)[C@H]1CC[C@H](c2c(F)cc3c(c2F)CCN3[C@H]2CCC(=O)NC2=O)CC1 (single isomer, unassigned) [Compound 55-4]
< 100000 | CC(C)(C)OC(=O)N1CC[C@H]2CN(c3cccc4c3CCN4[C@@H]3CCC(=O)NC3=O)CC[C@H]21 (single isomer, unassigned) [Compound 56-9a]
< 100000 | CC(C)(C)OC(=O)C1CCN(Cc2cccc3c2CCN3[C@@H]2CCC(=O)NC2=O)CC1 (single isomer, unassigned) [Compound 54-7]

More lines, now with the values behind:

SMILES | Kd [nM]
O=C1CCC(N2CCc3c(N4CCC(C(F)(F)CO)CC4)cccc32)C(=O)N1 (centres unmarked) [Compound 51-12, 3-[4-[4-(1,1-difluoro-2-hydroxy-ethyl)-1-piperidyl]indolin-1-yl]piperidine-2,6-dione] | < 100000
O=C1CC[C@@H](N2CCc3c(N4CCC(CO)CC4)cccc32)C(=O)N1 (single isomer, unassigned) [Compound 53-6] | < 100000

Same assay, conditions: 0.05% PA, 0.1% BSA; tetrahydroquinoline binders; read-out: FP CRBN_DDB1.3 0.05% PA, 0.1% BSA ka nM

Kd [nM] | SMILES
< 1000 | CN(C(=O)OC(C)(C)C)C1CCN(c2cccc3c2CCCN3[C@@H]2CCC(=O)NC2=O)CC1 (single isomer, unassigned) [Compound 61-6]
< 100000 | O=C1CC[C@@H](N2CCCc3c(N4CCC(CCO)CC4)cccc32)C(=O)N1 (single isomer, unassigned) [Compound 66-5]
< 1000 | CC(C)(C)OC(=O)CN1CCC(c2cccc3c2CCCN3[C@H]2CCC(=O)NC2=O)CC1 (single isomer, unassigned) [Compound 60-3]
< 100000 | CN(C(=O)OC(C)(C)C)C1CCN(c2cccc3c2CCCN3[C@H]2CCC(=O)NC2=O)CC1 (single isomer, unassigned) [Compound 61-5]
